Laboratory results taken from US12637478B2, “Compound, preparation method thereof, and antibiotic composition comprising same” (priority 2020, dated 2026).
Values after ≈ are worked out from the molar mass of the structure shown.

Key:
C. difficile 9689 = assay: MIC by agar dilution against Clostridioides difficile, test strain 13; assay type: cell-based; conditions: test strain 13, C. difficile 9689, anaerobic, agar dilution, read-out: MIC
C. difficile 159 = assay: MIC by agar dilution against Clostridioides difficile, test strain 15; assay type: cell-based; conditions: test strain 15, C. difficile 159, anaerobic, agar dilution, read-out: MIC
C. difficile 181 = assay: MIC by agar dilution against Clostridioides difficile, test strain 19; assay type: cell-based; conditions: test strain 19, C. difficile 181, anaerobic, agar dilution, read-out: MIC
C. difficile 152 = assay: MIC by agar dilution against Clostridioides difficile, test strain 14; assay type: cell-based; conditions: test strain 14, C. difficile 152, anaerobic, agar dilution, read-out: MIC
C. difficile 173 = assay: MIC by agar dilution against Clostridioides difficile, test strain 17; assay type: cell-based; conditions: test strain 17, C. difficile 173, anaerobic, agar dilution, read-out: MIC
C. difficile 174 = assay: MIC by agar dilution against Clostridioides difficile, test strain 18; assay type: cell-based; conditions: test strain 18, C. difficile 174, anaerobic, agar dilution, read-out: MIC
C. difficile 161 = assay: MIC by agar dilution against Clostridioides difficile, test strain 16; assay type: cell-based; conditions: test strain 16, C. difficile 161, anaerobic, agar dilution, read-out: MIC
E. faecium^VRE = assay: MIC by broth microdilution (aerobic pathogens), test strain 11; assay type: cell-based, Vancomycin resistant Enterococcus faecium; conditions: Enterococcus faecium; test strain 11, E. faecium^VRE (vancomycin resistant); read-out: MIC
Experimental: (§1) The antibacterial activity of the compounds of Examples 1 to 48 of the present invention against aerobic pathogens were evaluated by measuring the minimum concentration of the antibiotic capable of inhibiting bacterial growth by 90% compared to the growth of the non-drug treated control group. MIC was measured by the broth microdilution method based on CLSI standards [Reference: Clinical and Laboratory Standards Institute Document. (2000) Methods for Dilution Antimicrobial Susceptibility Test for Bacteria that Grow Aerobically-Fifth Edition: M7-A5. CLSI, Villanova, PA].
(§2) All 13 strains such as methicillin susceptible Staphylococcus aureus (MSSA), methicillin resistant Staphylococcus aureus (MRSA), Vancomycin resistant Staphylococcus aureus (VRSA), Staphylococcus epidermidis, methicillin resistant Staphylococcus epidermidis, Enterococcus faecalis, Vancomycin resistant Enterococcus faecalis, Enterococcus faecium, Vancomycin resistant Enterococcus faecium were used.

E. faecium^LinR = assay: MIC by broth microdilution (aerobic pathogens), test strain 12; assay type: cell-based, Linezolid resistant Enterococcus faecium; conditions: Enterococcus faecium; test strain 12, E. faecium^LinR (linezolid resistant); read-out: MIC
Experimental: as §1, §2

S. epidermis = assay: MIC by broth microdilution (aerobic pathogens), test strain 5; assay type: cell-based; conditions: Staphylococcus epidermidis; test strain 5, S. epidermis; read-out: MIC
Experimental: as §1, §2

E. faecium = assay: MIC by broth microdilution (aerobic pathogens), test strain 10; assay type: cell-based; conditions: Enterococcus faecium; test strain 10, E. faecium; read-out: MIC
Experimental: as §1, §2

S. epidermis^MR = assay: MIC by broth microdilution (aerobic pathogens), test strain 6; assay type: cell-based, Methicillin resistant Staphylococcus epidermidis; conditions: Staphylococcus epidermidis; test strain 6, S. epidermis^MR (methicillin resistant); read-out: MIC
Experimental: as §1, §2

S. aureus^MR = assay: MIC by broth microdilution (aerobic pathogens), test strain 3; assay type: cell-based, Methicillin resistant Staphylococcus aureus; conditions: Staphylococcus aureus; test strain 3, S. aureus^MR (methicillin resistant); read-out: MIC
Experimental: as §1, §2

S. aureus^MS [1] = assay: MIC by broth microdilution (aerobic pathogens), test strain 1; assay type: cell-based; conditions: Staphylococcus aureus; test strain 1, S. aureus^MS; read-out: MIC
Experimental: as §1, §2

S. aureus^MS [2] = assay: MIC by broth microdilution (aerobic pathogens), test strain 2; assay type: cell-based; conditions: Staphylococcus aureus; test strain 2, S. aureus^MS; read-out: MIC
Experimental: as §1, §2

E. faecalis^VanA = assay: MIC by broth microdilution (aerobic pathogens), test strain 8; assay type: cell-based, Vancomycin resistant Enterococcus faecalis; conditions: Enterococcus faecalis; test strain 8, E. faecalis^VanA (vancomycin resistant); read-out: MIC
Experimental: as §1, §2

E. faecalis^LinR = assay: MIC by broth microdilution (aerobic pathogens), test strain 9; assay type: cell-based, Linezolid resistant Enterococcus faecalis; conditions: Enterococcus faecalis; test strain 9, E. faecalis^LinR (linezolid resistant); read-out: MIC
Experimental: as §1, §2

E. faecalis = assay: MIC by broth microdilution (aerobic pathogens), test strain 7; assay type: cell-based; conditions: Enterococcus faecalis; test strain 7, E. faecalis; read-out: MIC
Experimental: as §1, §2

S. aureus^VR = assay: MIC by broth microdilution (aerobic pathogens), test strain 4; assay type: cell-based, Vancomycin resistant Staphylococcus aureus; conditions: Staphylococcus aureus; test strain 4, S. aureus^VR (vancomycin resistant); read-out: MIC
Experimental: as §1, §2

Row | SMILES | MIC (C. difficile 9689) | MIC (C. difficile 159) | MIC (C. difficile 181) | MIC (C. difficile 152) | MIC (C. difficile 173) | MIC (C. difficile 174) | MIC (C. difficile 161) | MIC (E. faecium^VRE) | MIC (E. faecium^LinR) | MIC (S. epidermis) | MIC (E. faecium) | MIC (S. epidermis^MR) | MIC (S. aureus^MR) | MIC (S. aureus^MS [1]) | MIC (S. aureus^MS [2]) | MIC (E. faecalis^VanA) | MIC (E. faecalis^LinR) | MIC (E. faecalis) | MIC (S. aureus^VR)
1 | C/C=C1\NC(=O)[C@H]([C@@H](C)O)NC(=O)c2csc(n2)-c2ccc(-c3nc(-c4nc(C(=O)NC5(C(=O)NCCn6ccnc6[N+](=O)[O-])CC5)cs4)cs3)nc2-c2csc(n2)[C@H]([C@@H](C)O)NC(=O)c2csc(n2)[C@H](C(C)C)NC(=O)c2csc1n2 [Compound 39] | 0.25 µg/mL (≈ 0.204 µM) | 1 µg/mL (≈ 0.816 µM) | 0.5 µg/mL (≈ 0.408 µM) | 0.25 µg/mL (≈ 0.204 µM) | 0.5 µg/mL (≈ 0.408 µM) | 1 µg/mL (≈ 0.816 µM) | 0.25 µg/mL (≈ 0.204 µM) |  |  |  |  |  |  |  |  |  |  |  | 
2 | C/C=C(\NC(=O)c1csc(-c2csc(-c3ccc4c(n3)-c3csc(n3)[C@H]([C@@H](C)O)NC(=O)c3csc(n3)[C@H](C(C)C)NC(=O)c3csc(n3)/C(=C/C)NC(=O)[C@H]([C@@H](C)O)NC(=O)c3csc-4n3)n2)n1)C(=O)NCCn1cc([N+](=O)[O-])nc1C [Compound 41] | 0.5 µg/mL (≈ 0.403 µM) | 0.5 µg/mL (≈ 0.403 µM) | 1 µg/mL (≈ 0.807 µM) | 0.25 µg/mL (≈ 0.202 µM) | 0.5 µg/mL (≈ 0.403 µM) | 0.25 µg/mL (≈ 0.202 µM) | 0.25 µg/mL (≈ 0.202 µM) |  |  |  |  |  |  |  |  |  |  |  | 
3 | C/C=C(\NC(=O)c1csc(-c2csc(-c3ccc4c(n3)-c3csc(n3)[C@H]([C@@H](C)O)NC(=O)c3csc(n3)[C@H](C(C)C)NC(=O)c3csc(n3)/C(=C/C)NC(=O)[C@H]([C@@H](C)O)NC(=O)c3csc-4n3)n2)n1)C(=O)NCCCN1CCOCC1 [Compound 48] |  |  |  |  |  |  |  | 1 µg/mL (≈ 0.824 µM) | 1 µg/mL (≈ 0.824 µM) | 0.5 µg/mL (≈ 0.412 µM) | 0.5 µg/mL (≈ 0.412 µM) | 0.5 µg/mL (≈ 0.412 µM) | 1 µg/mL (≈ 0.824 µM) | 0.5 µg/mL (≈ 0.412 µM) | 0.5 µg/mL (≈ 0.412 µM) | 0.5 µg/mL (≈ 0.412 µM) | 1 µg/mL (≈ 0.824 µM) | 0.5 µg/mL (≈ 0.412 µM) | 1 µg/mL (≈ 0.824 µM)
4 | C/C=C1\NC(=O)[C@H]([C@@H](C)O)NC(=O)c2csc(n2)-c2ccc(-c3nc(-c4nc(C(=O)NC5(C(=O)NCC6OB(O)c7ccccc76)CC5)cs4)cs3)nc2-c2csc(n2)[C@H]([C@@H](C)O)NC(=O)c2csc(n2)[C@H](C(C)C)NC(=O)c2csc1n2 (stereo partly drawn) [Compound 6] | 1 µg/mL (≈ 0.812 µM) |  | 0.06 µg/mL (≈ 0.0487 µM) | 0.06 µg/mL (≈ 0.0487 µM) | 0.06 µg/mL (≈ 0.0487 µM) | 0.06 µg/mL (≈ 0.0487 µM) |  | 1 µg/mL (≈ 0.812 µM) | 0.5 µg/mL (≈ 0.406 µM) | 0.5 µg/mL (≈ 0.406 µM) | 0.25 µg/mL (≈ 0.203 µM) | 1 µg/mL (≈ 0.812 µM) |  | 0.5 µg/mL (≈ 0.406 µM) | 0.25 µg/mL (≈ 0.203 µM) | 1 µg/mL (≈ 0.812 µM) | 0.125 µg/mL (≈ 0.101 µM) | 0.125 µg/mL (≈ 0.101 µM) | 1 µg/mL (≈ 0.812 µM)
5 | CC(=O)NC[C@H]1CN(c2ccc(N3CCOCC3)c(F)c2)C(=O)O1 [Lin, Linezolid, reference compound] |  |  |  |  |  |  |  | 2 µg/mL (≈ 5.93 µM) | 32 µg/mL (≈ 94.9 µM) | 1 µg/mL (≈ 2.96 µM) | 4 µg/mL (≈ 11.9 µM) | 1 µg/mL (≈ 2.96 µM) | 4 µg/mL (≈ 11.9 µM) | 2 µg/mL (≈ 5.93 µM) | 1 µg/mL (≈ 2.96 µM) | 2 µg/mL (≈ 5.93 µM) | 64 µg/mL (≈ 190 µM) | 2 µg/mL (≈ 5.93 µM) | 8 µg/mL (≈ 23.7 µM)
6 | C/C=C1\NC(=O)[C@H]([C@@H](C)O)NC(=O)c2csc(n2)-c2ccc(-c3nc(-c4nc(C(=O)NC5(C(=O)NCCn6c([N+](=O)[O-])cnc6C)CC5)cs4)cs3)nc2-c2csc(n2)[C@H]([C@@H](C)O)NC(=O)c2csc(n2)[C@H](C(C)C)NC(=O)c2csc1n2 [Compound 11] | 1 µg/mL (≈ 0.807 µM) | 0.5 µg/mL (≈ 0.403 µM) | 0.125 µg/mL (≈ 0.101 µM) | 0.25 µg/mL (≈ 0.202 µM) | 0.125 µg/mL (≈ 0.101 µM) | 0.125 µg/mL (≈ 0.101 µM) | 0.5 µg/mL (≈ 0.403 µM) |  |  | 0.125 µg/mL (≈ 0.101 µM) | 1 µg/mL (≈ 0.807 µM) | 0.5 µg/mL (≈ 0.403 µM) |  | 0.5 µg/mL (≈ 0.403 µM) | 0.5 µg/mL (≈ 0.403 µM) | 1 µg/mL (≈ 0.807 µM) | 0.5 µg/mL (≈ 0.403 µM) | 0.25 µg/mL (≈ 0.202 µM) | 
